Experimental data published in patent US20260274876A1, “3-PYRROLIDINE-INDOLE DIMERS AS SEROTONERGIC AGENTS USEFUL FOR THE TREATMENT OF DISORDERS RELATED THERETO” (MINDSET PHARMA INC., priority 2022, published 2026).
Where two headings read alike, the source gives them in different places.

What was measured:
human 5-HT2A receptor = human 5-HT2A receptor (Homo sapiens, UniProt P28223); assay: Human 5-HT2A radioligand binding assay ([3H]-ketanserin)
Protocol: The objective of this study was to evaluate the binding properties of exemplary compounds of Formula I on 5-hydroxytryptamine receptor 2A (5-HT2A).
(§1) • 1. The assay buffer was prepared following the table below.
• 2. 8 doses of reference and test compounds starting from 10 mM stock solution as required was prepared by 5-fold serial dilutions with 100% (v/v) DMSO. • 3. UniFilter-96 GF/B plate was pretreated: • i. 50 μl/well of 0.5% (v/v) PEI was added to […]. The plates were sealed and incubated at […] for 3 hrs. • ii. After incubation, the plates were washed 3 times with ice-cold wash buffer (50 mM Tris, pH7.4). • 4. The assay plate was prepared: • i. Cell membrane was diluted with assay buffer and 330 μl/well was added to 96 round deep well plates to reach a concentration of 20 μg/well. • ii. 8 concentrations of reference or test compounds were prepared and 110 μl/well was added to 96 round deep well plates. • iii. [3H]-ketanserin was diluted with assay buffer to 5 nM (5×final concentration) and 110 μl/well was added to 96 round deep well plates. • 5. The plate was centrifuged at 1000 rpm for 30 secs and then agitated at 600 rpm, R.T. for 5 min. • 6. The plates were sealed and the plate incubated at 279C for 90 min. • 7. The incubation was stopped by vacuum filtration onto GF/B filter plates followed by 4 times washing with ice-cold wash buffer (50 mM Tris, pH7.4). • 8. The plates were dried at 379C for 45 min. • 8. The filter plates were sealed and 40 μl/well of scintillation cocktail was added. • 10. The plate was read by using a Microbeta^2 microplate counter.
(§2) • 1. For reference and test compounds, the results were expressed as % Inhibition, using the normalization equation: N=100−100×(U−C2)/(C1−C2), where U is the unknown value, C1 is the average of high controls, and C2 is the average of low controls. • 2. The IC50 was determined by fitting percentage of inhibition as a function of compound concentrations with Hill equation using XLfit.

human 5-HT1A receptor = molecular target: T1, human 5-HT1A receptor (Homo sapiens, UniProt P08908); assay: Human 5-HT1A radioligand binding assay ([3H]-8-Hydroxy-DPAT)
T1 sequence (P08908 1-422): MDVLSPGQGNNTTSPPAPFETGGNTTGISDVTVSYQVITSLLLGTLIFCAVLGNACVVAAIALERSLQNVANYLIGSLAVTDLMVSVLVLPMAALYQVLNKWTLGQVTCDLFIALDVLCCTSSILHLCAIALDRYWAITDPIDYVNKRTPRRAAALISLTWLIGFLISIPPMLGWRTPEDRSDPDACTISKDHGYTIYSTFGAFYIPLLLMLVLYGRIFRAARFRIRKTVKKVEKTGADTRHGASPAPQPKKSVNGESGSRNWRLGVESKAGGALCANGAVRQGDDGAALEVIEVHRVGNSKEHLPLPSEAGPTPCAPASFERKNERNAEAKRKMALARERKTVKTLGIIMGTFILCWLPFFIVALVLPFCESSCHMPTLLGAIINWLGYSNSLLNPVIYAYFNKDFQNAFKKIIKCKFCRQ
Protocol: The objective of this study was to evaluate the binding properties of test compounds on 5-hydroxytryptamine receptor 1A (5-HT1A).
as §1
• 2. 8 doses of reference and test compounds were prepared starting from 10 mM stock solution as required by 5-fold serial dilutions with 100% (v/v) DMSO. • 3. UniFilter-96 GF/B plate was pretreated: • i. 50 μl/well of 0.5% (v/v) PEI was added to UniFilter-96 GF/B plates. The plates were sealed and incubated at 4° C. for 3 hrs. • ii. After incubation, the plates were washed 3 times with ice-cold wash buffer (50 mM Tris, pH7.4). • 4. Assay plate was prepared: • i. Cell membrane was diluted with assay buffer and 100 μl/well was added to 96 round well plates to reach a concentration of 20 μg/well. • ii. 8 concentrations of reference or test compounds were prepared and 50 μl/well was added to 96 round deep well plates. • iii. [3H]-8-Hydroxy-DPAT was diluted with assay buffer to 2 nM (4×final concentration) and 50 μl/well was added to 96 round well plates. • 5. The plate was centrifuged at 1000 rpm for 30 secs and then agitated at 600 rpm, R.T. for 5 min. • 6. The plates were sealed and the plate was incubated at 27° C. for 90 min. • 7. The incubation was stopped by vacuum filtration onto GF/B filter plates followed by 4 times washing with ice-cold wash buffer (50 mM Tris, pH7.4). • 8. The plates were dried at 37° C. for 45 min. • 9. The filter plates were sealed and 40 μl/well of scintillation cocktail was added. • 10. The plate was read by using a Microbeta^2 microplate counter.
as §2, with “[…]” for “function”

[1] = Liver microsomes stability, human; settings: for Remaining Percentage (%) after 60 min, Human, With cofactors / Remaining Percentage (%) after 60 min, Human, Without cofactors: human liver microsomes; for half-life at 2 μM / microsomal CLint at 2 μM / metabolic stability in liver microsomes (statement): human; for half-life at 2 μM / microsomal CLint at 2 μM: pooled human liver microsomes; for metabolic stability in liver microsomes (statement): rat and mouse liver microsomes
Protocol: (§3) 40 μL of 10 mM NADPH solution was added to each well. The final concentration of NADPH was 1 mM. The negative control samples were prepared by replacing NADPH with 40 μL of ultra-pure H2O. Samples were prepared in duplicate. Negative controls were prepared in singlet.
(§4) This study was performed in duplicate.
(§5) LC/MS analysis was performed for all samples from this study using a Shimadzu liquid chromatograph separation system equipped with degasser DGU-20A5R; solvent delivery unit LC-30AD; system controller SIL-30AC; column oven CTO-30A; CTC Analytics HTC PAL System. Mass spectrometric analysis was performed using a Triple Quad™ 5500 instrument.
(§6) All calculations were carried out using Microsoft Excel.
(§7) All calculations were carried out using Microsoft Excel. Peak areas were determined from extracted ion chromatograms.

[2] = Liver microsomes stability, rat; settings: for Remaining Percentage (%) after 60 min, Rat, With cofactors / half-life at 2 μM / microsomal CLint at 2 μM / Remaining Percentage (%) after 60 min, Rat, Without cofactors: rat liver microsomes; for half-life at 2 μM / microsomal CLint at 2 μM: male, rat
Protocol: as §3, §4, §5, §6, §7

Plasma stability, mouse = format: in vitro ADME
Protocol: (§8) • a. […] The final concentration of organic solvents was 0.5%. The assay was performed in duplicated. • b.
as §6

Plasma stability, dog = format: in vitro ADME; settings: for half-life: 37° C.
Protocol: as §8, §6

Chain of human 5-HT2A receptor (P28223 whole entry): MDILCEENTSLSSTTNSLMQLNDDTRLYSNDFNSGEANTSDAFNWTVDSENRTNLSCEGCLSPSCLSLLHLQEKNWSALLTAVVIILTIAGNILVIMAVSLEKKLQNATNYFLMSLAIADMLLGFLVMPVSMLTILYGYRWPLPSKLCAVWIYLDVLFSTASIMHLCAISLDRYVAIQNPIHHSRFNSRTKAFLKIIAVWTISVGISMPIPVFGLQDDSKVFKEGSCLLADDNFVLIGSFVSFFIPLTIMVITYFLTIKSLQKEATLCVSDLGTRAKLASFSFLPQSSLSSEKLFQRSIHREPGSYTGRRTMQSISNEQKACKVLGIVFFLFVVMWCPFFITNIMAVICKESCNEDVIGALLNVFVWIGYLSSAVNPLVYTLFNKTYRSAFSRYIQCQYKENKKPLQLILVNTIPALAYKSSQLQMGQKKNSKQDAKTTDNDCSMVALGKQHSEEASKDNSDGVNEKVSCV

Compound	IC50 (human 5-HT2A receptor)	IC50 (human 5-HT1A receptor)	Remaining Percentage (%) after 60 min, Human, With cofactors [1]	Remaining Percentage (%) after 60 min, Rat, With cofactors [2]	Remaining Percentage (%) after 60 min, Human, Without cofactors [1]	half-life at 2 μM [1]	microsomal CLint at 2 μM [1]	metabolic stability in liver microsomes (statement) [1]	half-life at 2 μM [2]	microsomal CLint at 2 μM [2]	Remaining Percentage (%) after 60 min, Rat, Without cofactors [2]	Remaining Percentage (%) 0 min (Plasma stability, mouse)	Remaining Percentage (%) 30 min (Plasma stability, mouse)	Remaining Percentage (%) 60 min (Plasma stability, mouse)	Remaining Percentage (%) 120 min (Plasma stability, mouse)	Remaining Percentage (%) 180 min (Plasma stability, mouse)	Remaining Percentage (%) 240 min (Plasma stability, mouse)	Remaining Percentage (%) 0 min (Plasma stability, dog)	half-life (Plasma stability, dog)	Remaining Percentage (%) 30 min (Plasma stability, dog)	other results
CN1CCC[C@@H]1Cc1c[nH]c2cccc(O)c12 [Compound 10, (R)-3-((1-methylpyrrolidin-2-yl)methyl)-1H-indol-4-ol]	219 nM	148 nM																			
[2H]C([2H])(c1c[nH]c2cccc(O)c12)[C@H]1CCCN1C([2H])([2H])[2H] [Compound 13, (R)-3-((1-(methyl-d3)pyrrolidin-2-yl)methyl-d2)-1H-indol-4-ol]	219 nM	156 nM																			
CN(C)CCc1c[nH]c2cccc(O)c12 [Psilocin, 4-hydroxy-N,N-dimethyltryptamine, reference compound]			70.16%	62.68%																	IC50 (human 5-HT1A receptor; radioligand binding, [3H]-8-Hydroxy-DPAT, read-out: h5-HT1A, IC50): 196 nM; t1/2 Human ([1]; human liver microsomes with NADPH, 2 μM): 117.32 min; t1/2 Rat ([2]; rat liver microsomes with NADPH, 2 μM): 89.01 min
[2H]C([2H])(c1c[nH]c2cccc(OC(=O)CCCC(=O)Oc3cccc4[nH]cc(C([2H])([2H])[C@H]5CCCN5C([2H])([2H])[2H])c34)c12)[C@H]1CCCN1C([2H])([2H])[2H] [Compound I-22, bis(3-(((R)-1-(methyl-d3)pyrrolidin-2-yl)methyl-d2)-1H-indol-4-yl) glutarate]	44.8 nM	124 nM	0%	0%	1.38%	4.67 min	297 µL/min/mg	rapidly metabolized	< 4.51 min	> 307 µL/min/mg	0.22%	100.00%	0.00%	0.00%	0.00%	0.00%	0.00%	100.00%	24.9 min	39.05%	Remaining Percentage (%) 60 min (Plasma stability, dog): 14.86%; Remaining Percentage (%) 120 min (Plasma stability, dog): 3.51%; Remaining Percentage (%) 180 min (Plasma stability, dog): 0.92%; Remaining Percentage (%) 240 min (Plasma stability, dog): 0.56%
CN1CCC[C@@H]1Cc1c[nH]c2cccc(OC(=O)CCCC(=O)Oc3cccc4[nH]cc(C[C@H]5CCCN5C)c34)c12 [Compound I-13, Bis(3-(((R)-1-methylpyrrolidin-2-yl)methyl)-1H-indol-4-yl) glutarate]	37 nM	154 nM	0%	0%	0%	< 4.51 min	> 307 µL/min/mg	rapidly metabolized	< 4.51 min	> 307 µL/min/mg	0%	100.00%	0.00%	0.00%	0.00%	0.00%	0.00%	100.00%	49.2 min	67.21%	Remaining Percentage (%) 60 min (Plasma stability, dog): 44.90%; Remaining Percentage (%) 120 min (Plasma stability, dog): 15.17%; Remaining Percentage (%) 180 min (Plasma stability, dog): 8.32%; Remaining Percentage (%) 240 min (Plasma stability, dog): 3.48%
